# Results taken from PubChem BioAssay (NCI).
#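 A five-concentration, 48-hour dose response in 96-well plates underlies each endpoint, interpolated linearly between surrounding concentrations. The concentration for full growth arrest is given as TGI.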
# What was measured:
# Assay in all cases: growth of human tumour cells (NCI), 48 h
# [1] = system: MCF7 breast
# [2] = system: NCI-H522 lung
# [3] = system: HCT-15 colon
# [4] = system: MDA-N
# [5] = system: HCC-2998 colon
# [6] = system: CCRF-CEM leukemia
# [7] = system: LOX IMVI melanoma
# [8] = system: HOP-62 NSCLC
# [9] = system: SF-295 CNS
# [10] = system: SF-539 CNS
# [11] = system: M14 melanoma
# [12] = system: SK-MEL-5 melanoma
# [13] = system: UACC-257 melanoma
# [14] = system: OVCAR-4 ovarian
# [15] = system: COLO 205 colon
# [16] = system: K-562 leukemia
# [17] = system: TK-10 renal
# [18] = system: A498 renal
# [19] = system: MALME-3M melanoma
# [20] = system: SK-MEL-2 melanoma
# [21] = system: SK-OV-3 ovarian
# [22] = system: SF-268 CNS
# [23] = system: RXF 393 renal
# [24] = system: 786-0 renal
# [25] = system: SN12C renal
# [26] = system: A549 NSCLC
# [27] = system: OVCAR-3 ovarian
# [28] = system: SNB-75 CNS
# [29] = system: EKVX NSCLC
# [30] = system: RPMI-8226 leukemia
# [31] = system: NCI-H460 lung
# [32] = system: MOLT-4 leukemia
# [33] = system: HL-60(TB) leukemia
# [34] = system: NCI/ADR-RES ovarian
# [35] = system: NCI-H23 lung
# [36] = system: HOP-92 NSCLC
# [37] = system: SW-620 colon
# [38] = system: KM12 colon
# [39] = system: U251 CNS
# [40] = system: SR leukemia
# [41] = system: MDA-MB-231 breast
# [42] = system: IGROV1 ovarian
# [43] = system: BT-549 breast
# [44] = system: HS 578T breast
# [45] = system: SNB-19 CNS
# [46] = system: DU-145 prostate
# [47] = system: CAKI-1 renal
# [48] = system: NCI-H226 lung
# [49] = system: SK-MEL-28 melanoma
# [50] = system: ACHN renal
# [51] = system: UO-31 renal
# [52] = system: UACC-62 melanoma
# [53] = system: HT29 colon
# [54] = system: PC-3 prostate
# [55] = system: MDA-MB-435
# [56] = system: HCT-116 colon
# [57] = system: OVCAR-5 ovarian
# [58] = system: OVCAR-8 ovarian
# [59] = system: T-47D breast
smiles,measurement,setting,value
CCOC(=O)C1=C(Cl)c2cccnc2C1=O,TGI,[1],> 100 µM
same,TGI,[2],> 100 µM
same,TGI,[3],> 100 µM
same,TGI,[4],> 100 µM
same,TGI,[5],> 100 µM
same,TGI,[6],> 100 µM
same,TGI,[7],72.7 µM
same,TGI,[8],> 100 µM
same,TGI,[9],> 100 µM
same,TGI,[10],> 100 µM
same,TGI,[11],> 100 µM
same,TGI,[12],> 100 µM
same,TGI,[13],> 100 µM
same,TGI,[14],> 100 µM
same,TGI,[15],> 100 µM
same,TGI,[16],> 100 µM
same,TGI,[17],> 100 µM
same,TGI,[18],> 100 µM
same,TGI,[19],> 100 µM
same,TGI,[20],> 100 µM
same,TGI,[21],> 100 µM
same,TGI,[22],> 100 µM
same,TGI,[23],> 100 µM
same,TGI,[24],> 100 µM
same,TGI,[25],> 100 µM
same,TGI,[26],> 100 µM
same,TGI,[27],43.7 µM
same,TGI,[28],88.3 µM
same,TGI,[29],> 100 µM
same,TGI,[30],> 100 µM
same,TGI,[31],> 100 µM
same,TGI,[32],> 100 µM
same,TGI,[33],> 100 µM
same,TGI,[34],> 100 µM
same,TGI,[35],31.6 µM
same,TGI,[36],> 100 µM
same,TGI,[37],> 100 µM
same,TGI,[38],> 100 µM
same,TGI,[39],> 100 µM
same,TGI,[40],37.9 µM
same,TGI,[41],> 100 µM
same,TGI,[42],> 100 µM
same,TGI,[43],> 100 µM
same,TGI,[44],77 µM
same,TGI,[45],> 100 µM
same,TGI,[46],55.6 µM
same,TGI,[47],> 100 µM
same,TGI,[48],> 100 µM
same,TGI,[49],> 100 µM
same,TGI,[50],> 100 µM
same,TGI,[51],> 100 µM
same,TGI,[52],> 100 µM
same,TGI,[53],> 100 µM
same,TGI,[54],> 100 µM
same,TGI,[55],64.7 µM
same,TGI,[56],> 100 µM
O=[N+]([O-])c1ccc2c(c1)Sc1ccccc1N2,TGI,[1],> 100 µM
same,TGI,[2],> 100 µM
same,TGI,[3],> 100 µM
same,TGI,[4],> 100 µM
same,TGI,[5],> 100 µM
same,TGI,[6],> 100 µM
same,TGI,[7],> 100 µM
same,TGI,[8],> 100 µM
same,TGI,[9],> 100 µM
same,TGI,[10],> 100 µM
same,TGI,[57],> 100 µM
same,TGI,[12],> 100 µM
same,TGI,[13],> 100 µM
same,TGI,[14],> 100 µM
same,TGI,[15],> 100 µM
same,TGI,[16],> 100 µM
same,TGI,[17],> 100 µM
same,TGI,[18],> 100 µM
same,TGI,[19],> 100 µM
same,TGI,[22],> 100 µM
same,TGI,[58],> 100 µM
same,TGI,[23],> 100 µM
same,TGI,[24],> 100 µM
same,TGI,[25],> 100 µM
same,TGI,[26],> 100 µM
same,TGI,[27],> 100 µM
same,TGI,[28],81.9 µM
same,TGI,[29],> 100 µM
same,TGI,[30],> 100 µM
same,TGI,[31],> 100 µM
same,TGI,[32],> 100 µM
same,TGI,[33],> 100 µM
same,TGI,[34],> 100 µM
same,TGI,[35],> 100 µM
same,TGI,[36],> 100 µM
same,TGI,[37],> 100 µM
same,TGI,[38],> 100 µM
same,TGI,[39],> 100 µM
same,TGI,[40],> 100 µM
same,TGI,[41],> 100 µM
same,TGI,[42],> 100 µM
same,TGI,[43],> 100 µM
same,TGI,[44],> 100 µM
same,TGI,[45],> 100 µM
same,TGI,[46],> 100 µM
same,TGI,[47],> 100 µM
same,TGI,[48],> 100 µM
same,TGI,[49],> 100 µM
same,TGI,[50],> 100 µM
same,TGI,[51],> 100 µM
same,TGI,[53],> 100 µM
same,TGI,[54],> 100 µM
same,TGI,[55],> 100 µM
same,TGI,[56],> 100 µM
CC(=O)Nc1ccc(S(=O)(=O)Nc2nc(-c3ccc(Cl)cc3)cc(N3N=C(c4ccc(Br)cc4)CC3c3ccccc3)n2)cc1 (stereo not given),TGI,[1],16.6 µM
same,TGI,[2],31 µM
same,TGI,[3],31.9 µM
same,TGI,[4],29.8 µM
same,TGI,[6],90.3 µM
same,TGI,[7],29.5 µM
same,TGI,[8],35.3 µM
same,TGI,[9],31.5 µM
same,TGI,[10],31.1 µM
same,TGI,[11],43 µM
same,TGI,[57],27.8 µM
same,TGI,[13],37.3 µM
same,TGI,[14],30 µM
same,TGI,[15],27.1 µM
same,TGI,[16],23.3 µM
same,TGI,[17],33.5 µM
same,TGI,[19],40.7 µM
same,TGI,[20],30.5 µM
same,TGI,[21],29.9 µM
same,TGI,[58],33.3 µM
same,TGI,[23],39.7 µM
same,TGI,[24],44 µM
same,TGI,[25],32.3 µM
same,TGI,[26],31.5 µM
same,TGI,[27],8.46 µM
same,TGI,[29],26.5 µM
same,TGI,[30],37.5 µM
same,TGI,[31],44.3 µM
same,TGI,[32],39.5 µM
same,TGI,[33],38.1 µM
same,TGI,[34],34.4 µM
same,TGI,[35],41.2 µM
same,TGI,[36],32.4 µM
same,TGI,[37],52.5 µM
same,TGI,[38],40.4 µM
same,TGI,[39],32.1 µM
same,TGI,[40],56.6 µM
same,TGI,[41],28.6 µM
same,TGI,[42],24.1 µM
same,TGI,[43],34 µM
same,TGI,[44],31 µM
same,TGI,[45],33.8 µM
same,TGI,[46],62.4 µM
same,TGI,[48],31.8 µM
same,TGI,[49],35.1 µM
same,TGI,[50],58.3 µM
same,TGI,[51],30.5 µM
same,TGI,[52],25.2 µM
same,TGI,[53],28.3 µM
same,TGI,[54],36.1 µM
same,TGI,[55],19.6 µM
same,TGI,[56],42.7 µM
CC(C)(C)OC(=O)NCCc1ccc(N)cc1,TGI,[1],> 100 µM
same,TGI,[2],> 100 µM
same,TGI,[3],> 100 µM
same,TGI,[4],> 100 µM
same,TGI,[5],> 100 µM
same,TGI,[6],> 100 µM
same,TGI,[7],> 100 µM
same,TGI,[8],> 100 µM
same,TGI,[9],> 100 µM
same,TGI,[59],> 100 µM
same,TGI,[11],> 100 µM
same,TGI,[12],> 100 µM
same,TGI,[13],> 100 µM
same,TGI,[14],> 100 µM
same,TGI,[15],> 100 µM
same,TGI,[16],> 100 µM
same,TGI,[17],> 100 µM
same,TGI,[19],> 100 µM
same,TGI,[22],> 100 µM
same,TGI,[58],> 100 µM
same,TGI,[26],> 100 µM
same,TGI,[27],> 100 µM
same,TGI,[29],> 100 µM
same,TGI,[30],> 100 µM
same,TGI,[31],> 100 µM
same,TGI,[32],> 100 µM
same,TGI,[33],> 100 µM
same,TGI,[34],> 100 µM
same,TGI,[37],> 100 µM
same,TGI,[39],> 100 µM
same,TGI,[40],> 100 µM
same,TGI,[41],> 100 µM
same,TGI,[42],> 100 µM
same,TGI,[45],> 100 µM
same,TGI,[46],> 100 µM
same,TGI,[49],> 100 µM
same,TGI,[50],> 100 µM
same,TGI,[51],> 100 µM
same,TGI,[52],> 100 µM
same,TGI,[53],> 100 µM
same,TGI,[54],> 100 µM
same,TGI,[55],> 100 µM
same,TGI,[56],> 100 µM
CC(C)OC(=O)C1=C2c3ncccc3C(=O)N2[C@@H](Cl)[C@H](Cl)[C@H]1Cl,TGI,[1],> 100 µM
same,TGI,[2],> 100 µM
same,TGI,[3],> 100 µM
same,TGI,[4],> 100 µM
same,TGI,[5],> 100 µM
same,TGI,[7],> 100 µM
same,TGI,[8],> 100 µM
same,TGI,[9],> 100 µM
same,TGI,[10],> 100 µM
same,TGI,[11],> 100 µM
same,TGI,[57],> 100 µM
same,TGI,[12],> 100 µM
same,TGI,[13],> 100 µM
same,TGI,[14],> 100 µM
same,TGI,[15],> 100 µM
same,TGI,[16],> 100 µM
same,TGI,[17],> 100 µM
same,TGI,[18],> 100 µM
same,TGI,[19],> 100 µM
same,TGI,[20],> 100 µM
same,TGI,[22],> 100 µM
same,TGI,[58],> 100 µM
same,TGI,[23],> 100 µM
same,TGI,[24],> 100 µM
same,TGI,[25],85.9 µM
same,TGI,[26],> 100 µM
same,TGI,[27],> 100 µM
same,TGI,[29],> 100 µM
same,TGI,[30],> 100 µM
same,TGI,[31],> 100 µM
same,TGI,[32],> 100 µM
same,TGI,[33],> 100 µM
same,TGI,[34],> 100 µM
same,TGI,[35],> 100 µM
same,TGI,[36],> 100 µM
same,TGI,[37],> 100 µM
same,TGI,[38],> 100 µM
same,TGI,[39],> 100 µM
same,TGI,[40],93.8 µM
same,TGI,[41],> 100 µM
same,TGI,[42],> 100 µM
same,TGI,[43],> 100 µM
same,TGI,[44],> 100 µM
same,TGI,[45],> 100 µM
same,TGI,[46],> 100 µM
same,TGI,[47],> 100 µM
same,TGI,[48],> 100 µM
same,TGI,[49],> 100 µM
same,TGI,[50],> 100 µM
same,TGI,[51],> 100 µM
same,TGI,[52],> 100 µM
same,TGI,[53],> 100 µM
same,TGI,[54],> 100 µM
same,TGI,[55],> 100 µM
same,TGI,[56],> 100 µM
